Measurements as given in the OligoGym collection.
These antisense oligonucleotides have a phosphorothioate backbone; sugars and methylation of C are not fully specified.

What was measured:
GNA11 = conditions: ASO
TNFRSF1A = conditions: ASO
Also: test concentration or dose not given here.

Q: How did the remaining target (mRNA or protein) (fraction of control) (GNA11) turn out when GTCAGGTAGTACTTGGCA was run?
A: 0.24

Q: For GGTCCGGAACAGGGCTTT, which remaining target (mRNA or protein) (fraction of control) (GNA11) is on record?
A: 0.74

Q: For AGATGATGTTCTCCAGGT, which remaining target (mRNA or protein) (fraction of control) (GNA11) is on record?
A: ≥ 1

Q: CACGCCATGATGGACTCC was tested. Which remaining target (mRNA or protein) (fraction of control) (GNA11) did it give?
A: ≥ 1

Q: TAGAGGATCTTGAGCGTC was tested. Which remaining target (mRNA or protein) (fraction of control) (GNA11) did it give?
A: ≥ 1

Q: With GCCATGATGGACTCCAGA as the sequence, how does the remaining target (mRNA or protein) (fraction of control) (GNA11) read?
A: 0.25

Q: Which remaining target (mRNA or protein) (fraction of control) (GNA11) does the source give for GCGAGTACAGGATCTTGT here?
A: 0.83

Q: With ACGTGCTCTTCCCGCTCT as the sequence, how does the remaining target (mRNA or protein) (fraction of control) (GNA11) read?
A: 0.72

Q: GCAGGTAGCCCAAGGTGG was tested. Which remaining target (mRNA or protein) (fraction of control) (GNA11) did it give?
A: 0.8

Q: Which remaining target (mRNA or protein) (fraction of control) (GNA11) does the source give for TGAGGAAGAGGATGACGG here?
A: ≥ 1

Q: For GTAGATGATCTTGTCGCT, which remaining target (mRNA or protein) (fraction of control) (GNA11) is on record?
A: ≥ 1

Q: Which remaining target (mRNA or protein) (fraction of control) (GNA11) does the source give for TGGCGGTGAAGATGTTCT here?
A: ≥ 1

Q: For TCCTGGATGCCCGGGTCC, which remaining target (mRNA or protein) (fraction of control) (GNA11) is on record?
A: 0.7

Q: How did the remaining target (mRNA or protein) (fraction of control) (GNA11) turn out when CTCCACGTCCACCTCCCG was run?
A: 0.31

Q: How did the remaining target (mRNA or protein) (fraction of control) (GNA11) turn out when GATGGACTCCAGAGTCAT was run?
A: ≥ 1

Q: With GTGGAACTGGGCACGGGA as the sequence, how does the remaining target (mRNA or protein) (fraction of control) (TNFRSF1A) read?
A: 0.96

Q: With CCGCCTCCAGGTCGCCAG as the sequence, how does the remaining target (mRNA or protein) (fraction of control) (TNFRSF1A) read?
A: ≥ 1

Q: Which remaining target (mRNA or protein) (fraction of control) (GNA11) does the source give for GTAGGTGATGATGGTCCG here?
A: ≥ 1

Q: How did the remaining target (mRNA or protein) (fraction of control) (GNA11) turn out when TGTCCTCCTCCGAGTAGC was run?
A: ≥ 1

Q: How did the remaining target (mRNA or protein) (fraction of control) (TNFRSF1A) turn out when ACAGTTGAGGGTTGAGAC was run?
A: 0.7

Q: For GCAGCAGCAGCTTGAGCT, which remaining target (mRNA or protein) (fraction of control) (GNA11) is on record?
A: ≥ 1

Q: With CATTTGGGCTCAGGGCAG as the sequence, how does the remaining target (mRNA or protein) (fraction of control) (TNFRSF1A) read?
A: 0.91

Q: GTTCCTTTGTGGCACTTG was tested. Which remaining target (mRNA or protein) (fraction of control) (TNFRSF1A) did it give?
A: 0.88

Q: With TTGGCCTTGTTCTGCTCG as the sequence, how does the remaining target (mRNA or protein) (fraction of control) (GNA11) read?
A: ≥ 1

Q: For TGTAGAGGATCTTGAGCG, which remaining target (mRNA or protein) (fraction of control) (GNA11) is on record?
A: ≥ 1

Q: With GTGGCGATGCGGTCAACG as the sequence, how does the remaining target (mRNA or protein) (fraction of control) (GNA11) read?
A: 0.99

Q: Which remaining target (mRNA or protein) (fraction of control) (TNFRSF1A) does the source give for GCAGCCCAGCAGGTCCAT here?
A: 0.68

Q: How did the remaining target (mRNA or protein) (fraction of control) (GNA11) turn out when ATGTTCTCCGTGTCGGTG was run?
A: ≥ 1

Q: GATGAACTCCCGCGCCGC was tested. Which remaining target (mRNA or protein) (fraction of control) (GNA11) did it give?
A: 0.48

Q: For AGGCTCTGTGGCTTGTGG, which remaining target (mRNA or protein) (fraction of control) (TNFRSF1A) is on record?
A: 0.53

Q: With CAATGAAGAGGAGGGATA as the sequence, how does the remaining target (mRNA or protein) (fraction of control) (TNFRSF1A) read?
A: 0.79

Q: CGTTGATCCGCTTGGACT was tested. Which remaining target (mRNA or protein) (fraction of control) (GNA11) did it give?
A: ≥ 1

Q: CCATCCGGTTCTCGTTGT was tested. Which remaining target (mRNA or protein) (fraction of control) (GNA11) did it give?
A: 0.81

Q: Which remaining target (mRNA or protein) (fraction of control) (GNA11) does the source give for CGTCTCCATGGCCCGGAT here?
A: 0.51

Q: How did the remaining target (mRNA or protein) (fraction of control) (TNFRSF1A) turn out when GCAGAGGGCACAGGAGTG was run?
A: 0.76

Q: Which remaining target (mRNA or protein) (fraction of control) (TNFRSF1A) does the source give for AAAGGCAAAGACCAAAGA here?
A: 0.69

Q: How did the remaining target (mRNA or protein) (fraction of control) (TNFRSF1A) turn out when GGTTTTCTGAAGCGGTGA was run?
A: 0.83

Q: TTGTTCCGTGCTCGCCCC was tested. Which remaining target (mRNA or protein) (fraction of control) (TNFRSF1A) did it give?
A: 0.59

Q: With AGGTGGTTTTCTGAAGCG as the sequence, how does the remaining target (mRNA or protein) (fraction of control) (TNFRSF1A) read?
A: ≥ 1

Q: With GGTCAACGTCGGTCAGGT as the sequence, how does the remaining target (mRNA or protein) (fraction of control) (GNA11) read?
A: 0.82

Q: With GTCTGAGGTGGTTTTCTG as the sequence, how does the remaining target (mRNA or protein) (fraction of control) (TNFRSF1A) read?
A: 0.66

Q: For GGTTCAGGTCCACGAACA, which remaining target (mRNA or protein) (fraction of control) (GNA11) is on record?
A: 0.29

Q: Which remaining target (mRNA or protein) (fraction of control) (TNFRSF1A) does the source give for ACGGTCCCATTGAGGCAG here?
A: 0.66

Q: For CGCAAACCACCCACTCAG, which remaining target (mRNA or protein) (fraction of control) (TNFRSF1A) is on record?
A: 0.49

Q: Which remaining target (mRNA or protein) (fraction of control) (TNFRSF1A) does the source give for CCGTTGGTAGCGATACAT here?
A: 0.7

Q: GCCAAGTTTCTATTAGTG was tested. Which remaining target (mRNA or protein) (fraction of control) (TNFRSF1A) did it give?
A: 0.9

Q: Which remaining target (mRNA or protein) (fraction of control) (GNA11) does the source give for CGACTCCACCAGGACTTG here?
A: 0.6

Q: GCTGAGGGCGACGAGAAA was tested. Which remaining target (mRNA or protein) (fraction of control) (GNA11) did it give?
A: 0.25

Q: How did the remaining target (mRNA or protein) (fraction of control) (GNA11) turn out when CTTGAGCTCGCGCCGGGC was run?
A: 0.69

Q: How did the remaining target (mRNA or protein) (fraction of control) (TNFRSF1A) turn out when TCGTGGTCGCTCAGCCCT was run?
A: 0.72

Q: For GATCCACTTCCTCCGCTC, which remaining target (mRNA or protein) (fraction of control) (GNA11) is on record?
A: 0.41

Q: TAGACGAGCTTGGTGAAG was tested. Which remaining target (mRNA or protein) (fraction of control) (GNA11) did it give?
A: ≥ 1

Q: For TCAGGTTCAGCTGCAGGA, which remaining target (mRNA or protein) (fraction of control) (GNA11) is on record?
A: 0.97

Q: Which remaining target (mRNA or protein) (fraction of control) (TNFRSF1A) does the source give for GACCCATTTCCTTTCGGC here?
A: 0.74

Q: AAGCCGCGCTTGTCCTCC was tested. Which remaining target (mRNA or protein) (fraction of control) (GNA11) did it give?
A: 0.44

Q: With CAGGGTCTTGATGGCACT as the sequence, how does the remaining target (mRNA or protein) (fraction of control) (GNA11) read?
A: ≥ 1

Q: With CCCGCCGCAGCTGCTTCT as the sequence, how does the remaining target (mRNA or protein) (fraction of control) (GNA11) read?
A: 0.42

Q: GCAGTGTGGCAGCGGCAG was tested. Which remaining target (mRNA or protein) (fraction of control) (TNFRSF1A) did it give?
A: 0.47

Q: Which remaining target (mRNA or protein) (fraction of control) (GNA11) does the source give for GATGGTGTCCTTCACGGC here?
A: ≥ 1

Q: GTAGCCGGCGCCGTGGAT was tested. Which remaining target (mRNA or protein) (fraction of control) (GNA11) did it give?
A: 0.99

Q: Which remaining target (mRNA or protein) (fraction of control) (TNFRSF1A) does the source give for CACCAGCGGCAGCAGCAG here?
A: 0.79

Q: With CGCCTGCGGTCGTAGCAT as the sequence, how does the remaining target (mRNA or protein) (fraction of control) (GNA11) read?
A: ≥ 1

Q: With CGCATCTGCTTGATGAAC as the sequence, how does the remaining target (mRNA or protein) (fraction of control) (GNA11) read?
A: ≥ 1

Q: With GGTGGTGGGCACGCGGAC as the sequence, how does the remaining target (mRNA or protein) (fraction of control) (GNA11) read?
A: ≥ 1

Q: Which remaining target (mRNA or protein) (fraction of control) (TNFRSF1A) does the source give for GGTTGAGACTCGGGCATA here?
A: 0.6

Q: How did the remaining target (mRNA or protein) (fraction of control) (TNFRSF1A) turn out when CAGGAGCACCAGCGGCAG was run?
A: 0.54

Q: With TGTTCTCCAGGTCGAAAG as the sequence, how does the remaining target (mRNA or protein) (fraction of control) (GNA11) read?
A: 0.67

Q: For TGTCACGTTCTCAAAGCA, which remaining target (mRNA or protein) (fraction of control) (GNA11) is on record?
A: ≥ 1

Q: Which remaining target (mRNA or protein) (fraction of control) (GNA11) does the source give for CTTCACCTCATCGCTCAG here?
A: 0.8

Q: CTACAGGAGACACACTCG was tested. Which remaining target (mRNA or protein) (fraction of control) (TNFRSF1A) did it give?
A: 0.72
